Patent publication US20100297261A1, “Food Product and Fortification System Therefor” (priority 2005, published 2010)

Columns and labels:
[1] = guinea pigs; split by α-glucosidase in brush border of small intestine; cited from earlier work
[2] = humans; split by hydrolases in the small intestine; cited from earlier work
[3] = In vitro estimation of iron dialyzability (dough, simulated gastrointestinal conditions)
Method: All glass vessels used were incubated over night in 10% (v/v) HNO3 in water and subsequently rinsed with demineralised water. […] The dough was divided in portions of 16 g and stored at −20° C. until dissolution experiments took place.
The dough portions were suspended in water and homogenized for 10 s with a Braun Blender (type 4142) set at maximum speed. Subsequently, water, 0.45 g pepsin and HCl were added to a yield a 90 ml suspension of dough in simulated gastric fluid of pH 2.0. A 20 g sample was taken from the homogenous suspension for determination of total iron. The suspension was transferred to the vessel of a dissolution apparatus (VanK1 VK700, Varian; United States Pharmacopoeia (USP) dissolution apparatus, type II. Conditions for rotations per minute enzyme types and concentrations etc. taken as in the USP; <711> Dissolution; USP26/NF21; 2003; p. 1578-1579). […]
Dialyzable iron (sum of Fe^2+ and Fe^3+) was determined using a Hitachi 912 Analyser and reagents for the analysis of iron in human serum based on FerroZine (Roche Diagnostics Nederland BV). […]
Dialyzable iron is expressed as the percentage of the total iron present in the digest, assuming that it had equilibrated across the dialysis membrane by the time the content of the dialysis bag was collected.

| SMILES | Intestinal absorption of intact compound [1] | Free ascorbic acid in the blood after consumption [2] | In vitro dialyzable Ionic iron (% of total iron) ([3]; dough with 50 mg/Kg iron from ferrous sulphate, Fe:enhancer 1:3, means ± SD of 4 or 5 experiments) | Relative availability ([3]; relative to the availability of iron from FeSO4) |
| --- | --- | --- | --- | --- |
| O=C1O[C@H]([C@@H](O)CO)C(O)=C1O[C@H]1O[C@H](CO)[C@@H](O)[C@H](O)[C@H]1O [AA-2G, 2-O-α-D-glucopyranosyl-L-ascorbic acid] | cannot be absorbed | significant increase in free ascorbic acid in the blood |  |  |
| O=S(=O)([O-])[O-].[Fe+2] [Ferrous sulphate, ferrous sulphate] |  |  | 3.4 ± 1.8 % of total iron | 1.0 |
